The text below walks through data of patent US5508275A, “Lipid-selective antioxidants and their preparation and use” (Hoechst Aktiengesellschaft, priority 1990, dated 1996).

A value given as a limit tells only on which side of the number the result lay.

Series [1] can be described thus: Use as an additive in frying fat: color change of butter (Method II). The settings on record: 1% (weight/weight) in butter. The method, then:
Use as an additive in frying fat: Samples of commercially available German non-blended butter were melted and in each case 1% (weight/weight) of BHT (=butylated hydroxytoluene) or 2,6-di-tert.-butyl-4-(7-nonynoyl)-phenol [=compound according to Example 17] or ethyl 2-(3,5-di-tert.-butyl-4-hydroxybenzyl)-3-oxo-docosanoate [=compound according to Example 18] or N-octadecyl-DL-α-lipoic acid amide [=compound according to Example 52] was added and the mixture was used in the customary manner as frying fat. […] The better protective action of the […] probably comes about as a result of their lipophilic side chains and, therefore, improved lipophilic interaction. The advantageous action of N-octadecyl-DL-α-lipoic acid amide is particularly surprising, although this preparation has no recognizable antioxidative component.

Series [2] is described as follows: Solubility in water and olive oil (Method III). The method, then: a) Preparation of olive oil or aqueous solutions. 1 ml of olive oil or I ml of double-distilled water (or dilute NaOH pH=7.6) was added to 1 mg or 10 mg or 50 mg of the respective compound at 37° C. and it was checked whether a clear solution was obtained. The optionally centrifuged and decanted olive oil solutions were heated for 5 minutes using a Bunsen burner and the degree of browning of the olive oil was determined. […] Samples having poor protective action are given a (*) in the table (see below).

Series [3] has as its system thrombus formation in rats. In words: Laser-induced thrombosis in rats in vivo (Method VIII). Particulars: 30 mg/kg oral, laser induction 60 min after administration. On the set-up: species or system rat. Here is the method: The experimental procedure was carried out in every detail as described in U.S. Pat. No. 4,694,024. Laser induction took place 60 min after oral administration of the antioxidants.

A short description of series [4]: Inhibition of the oxidation of lipids: SA-PC in cyclohexane (Method IV). The format is biochemical. Particulars: 37° C., absorption at 234 nm. Here is the method:
Oxidation of 1-stearoyl-2-arachidonoylphosphatidylcholine (SA-PC) in cyclohexane (37° C.). 100 mcl of a SA-PC solution (10 mg/ml of CHCl3) were evaporated by blowing (argon) and the residue was taken up in 1 ml of cyclohexane. After adding an amount of antioxidant which would also dissolve in olive oil (cf. Table 1), the absorption was measured at 234 nm (Perkin Elmer 5528 spektrophotometer, Uberlingan, FRG) and the solvent was then evaporated by blowing with air. After a fur%her 24 hours standing in an open vessel, the residue was again dissolved in i ml of cyclohexane and the absorption at 234 nm was measured as a measurement of the oxidized SA-PC.

Series [5] can be described thus: Antioxidative radical scavenger properties by the diphenylpicrylhydrazine (DPPH) method (Method I). It counts as biochemical. Particulars: absolute ethanol. The method, then:
Antioxidative radical scavenger properties by the diphenylpicrylhydrazine (DPPH) method: The determination was carried out spectrophotometrically (PMQ4 from Zeiss, Oberkochen, FRG) by the method described in Smith and Reeves, Biochemical Pharmacology 36 (1987) pp. 1457-1460. The measurement is the rate constant determined graphically (concentration versus conversion rate) in a known manner, measured in absolute ethanol.
A general note: Loss of DPPH colour is used to gauge radical scavenging.

Series [6] can be described thus: Long-term administration in the hyperlipidemic infarct-sensitive rat: total serum cholesterol (Method XI). The format is in vivo. The settings on record: 50 mg/kg oral, after 9 days; control 286. The method, then: While no test substance was administered to the control group I (cf. the following Table), the standard diet in the pharmaceutical experiments II-IV additionally contained 50 mg/kg of body weight of the test substances indicated in the table below. After 9 days, the rats were examined, as described above, in the laser-induced thrombosis test, and the total cholesterol content of the serum was determined. […] Moreover, the substances according to the invention exerted an advantageous hypolipidemic effect.

In series [7] the test system is proneness to thrombosis of hyperlipidemic infarct-sensitive rats. The experiment in a line: Long-term administration in the hyperlipidemic infarct-sensitive rat: laser-induced thrombosis test (Method XI). It counts as in vivo. The settings on record: 50 mg/kg oral, after 9 days.
Method: Male infarct-sensitive rats about 200 g in weight (Mollegaard, Ejby, Denmark) were treated orally once daily with 1 ml/100 g of body weight of a standard diet (100 g of cholic acid, 100 g of cholesterol, 30 g of propylthiouracil to 1 l of sesame oil). While no test substance was administered to the control group I (cf. the following Table), the standard diet in the pharmaceutical experiments II-IV additionally contained 50 mg/kg of body weight of the test substances indicated in the table below. After 9 days, the rats were examined, as described above, in the laser-induced thrombosis test, and the total cholesterol content of the serum was determined.
The mark [8] stands for this setting: olive oil, organic solvent or mixture.

On to `CCCCCCC#CC(=O)c1cc(C(C)(C)C)c(O)c(C(C)(C)C)c1` [Example 17], for which, in series [1], the “color change of frying fat after the frying procedure” value (“color change of frying fat” below) was “substantially lower color change”. Also, the solubility (usually the concentration that dissolves in the medium under given conditions) in series [2] (setting [8]) was above 50000 µg/mL; in series [2] (water), below 100 µg/mL.

`Cc1cc(C(C)(C)C)c(O)c(C(C)(C)C)c1` [BHT, butylated hydroxytoluene, reference compound]: the “color change of frying fat” value in series [1] is reported as “transformed into a viscous, dark brown material”. In addition, the figures for the solubility in series [2] (setting [8]) and in series [2] (water) were above 10000 µg/mL and below 100 µg/mL, respectively.

For the molecule `CCCCCCCCCCCCCCCCCCNC(=O)CCCCC1CCSS1` (racemic) [Example 52, N-octadecyl-DL-α-lipoic acid amide], in series [3], the “Reduction of thrombus formation” value amounted to 14%. Also, in series [4], the “prevention of the oxidation of SA-PC, reduced dithiol vs. corresponding oxidized dithio compounds” value was “possible to prevent the oxidation of SA-PC Just as effectively”. Also, the “color change of frying fat” value in series [1] is listed as “substantially lower color change”. For the same molecule, the solubility in series [2] (setting [8]) was above 10000 µg/mL; in series [2] (water), below 100 µg/mL.

In the case of `O=C1O[C@H]([C@@H](O)CO)C(O)=C1O` [Ascorbic acid], in series [5], the “Reaction with DPPH (rate constant)” value worked out at 2.99.

Turning to `CCCCCCCCCCCCCCCCCCCC(=O)C(Cc1cc(C(C)(C)C)c(O)c(C(C)(C)C)c1)C(=O)OCC` (stereo not shown) [Example 18, ethyl 2-(3,5-di-tert.-butyl-4-hydroxybenzyl)-3-oxo-docosanoate], the “color change of frying fat” value in series [1] was “substantially lower color change”. The solubility in series [2] (setting [8]) is above 50000 µg/mL; in series [2] (water), below 100 µg/mL.

For Vitamin E [reference compound], in series [3], the “Reduction of thrombus formation” value was 5%. This molecule also registered a Total cholesterol in series [6] of 278 mg/dL. In addition, the “Reduction in proneness to thrombosis vs. control (%)” value (“Reduction in proneness … (%)” below) in series [7] was determined as 26%. Besides, in series [2] (olive oil), the “Solubility, Olive oil” value was above 10000 µg/mL. Moreover, the “Solubility, Water” value in series [2] (water) is below 100 µg/mL.

Consider `CCCCCCCCCCCCCCCCCCOC(=O)CCCCC1CCSS1` (stereo not shown) [Example 51], for which, in series [4], the “prevention of the oxidation of SA-PC, reduced dithiol vs. corresponding oxidized dithio compounds” value is “possible to prevent the oxidation of SA-PC Just as effectively”. Further, the solubility in series [2] (setting [8]) is above 50000 µg/mL; in series [2] (water), below 100 µg/mL.

For the molecule `Cc1c(C)c2c(c(C)c1O)CCC(C)(C(=O)NCCCNC(=O)CC[C@@H](C)[C@H]1CC[C@H]3[C@@H]4CC[C@@H]5C[C@H](O)CC[C@]5(C)[C@H]4C[C@H](O)[C@]13C)O2` (stereo partly shown) [Example 2], the “Reduction of thrombus formation” value in series [3] was 14%. In series [6], the Total cholesterol is 270 mg/dL. Further, in series [7], the “Reduction in proneness … (%)” value is listed as 50%. In addition, the solubility was above 10000 µg/mL in series [2] (setting [8]) and above 100 µg/mL in series [2] (water).

For the molecule `CCCCCCCCCCCCCCCCCCOC(=O)CCCCC(S)CCS` (stereo not shown) [Example 50], the “prevention of the oxidation of SA-PC, reduced dithiol vs. corresponding oxidized dithio compounds” value in series [4] is reported as “possible to prevent the oxidation of SA-PC Just as effectively”. Further, the solubility in series [2] (setting [8]) was above 50000 µg/mL; in series [2] (water), below 100 µg/mL.

Turning to `CCCCCCCCCCCCCCCCCCNC(=O)CCCCC(S)CCS` (racemic) [Example 49], the “Reduction of thrombus formation” value in series [3] is given as 20%. Moreover, the Total cholesterol in series [6] is 259 mg/dL. In addition, the “Reduction in proneness … (%)” value in series [7] stood at 34%. Also, the “prevention of the oxidation of SA-PC, reduced dithiol vs. corresponding oxidized dithio compounds” value in series [4] is “possible to prevent the oxidation of SA-PC Just as effectively”. Besides, the solubility in series [2] (setting [8]) was above 10000 µg/mL; in series [2] (water), below 100 µg/mL.
